Data reported in ChEMBL document CHEMBL1128987, “Benzenesulfonamide-peptide conjugates as probes for secondary binding sites near the active site of carbonic anhydrase” (Bioorg Med Chem Lett, 1996).
“And” between values parts separate entries of the source, which are not always exact repeats. Equal values may be shown once. Where a SMILES comes first, the peptide text is derived from it. [ ]: non-standard residue; d: D form. The star is where a group is joined. Benzoyl(4-SO2NH2) = NS(=O)(=O)c1ccc(C(=O)*)cc1; Phe(4-Cl) = N[C@@H](Cc1ccc(Cl)cc1)C(=O)O; Nle = CCCC[C@H](N)C(=O)O

biological target: T1, Carbonic anhydrase 2 (Homo sapiens, UniProt P00918)
Description: Kinetic constant for binding human carbonic anhydrase II

| Compound | k off |
| --- | --- |
| NS(=O)(=O)c1ccc(C(=O)NCC(=O)NCC(=O)NCC(=O)N[C@@H](Cc2ccc(Cl)cc2)C(=O)O)cc1 ({Benzoyl(4-SO2NH2)}-GGG[Phe(4-Cl)]-OH) | 0.084 s⁻¹ |
| NS(=O)(=O)c1ccc(C(=O)NC(Cc2ccc(Cl)cc2)C(=O)O)cc1 (stereo not drawn) | 0.022 s⁻¹ |
| CCCCC(NC(=O)c1ccc(S(N)(=O)=O)cc1)C(=O)O (stereo not drawn) | 0.011 s⁻¹ |
| NS(=O)(=O)c1ccc(C(=O)NCC(=O)NCC(=O)NCC(=O)NCC(=O)O)cc1 ({Benzoyl(4-SO2NH2)}-GGGG-OH) | 0.09 s⁻¹ |
| CCCC[C@H](NC(=O)CNC(=O)CNC(=O)CNC(=O)c1ccc(S(N)(=O)=O)cc1)C(=O)O ({Benzoyl(4-SO2NH2)}-GGG[Nle]-OH) | 0.093 s⁻¹ |

biological target: T1, Carbonic anhydrase 2; remark: another data set of the same source
Description: Kinetic constant for binding human carbonic anhydrase II (Kon=Kd x Koff)

| Compound | k on |
| --- | --- |
| NS(=O)(=O)c1ccc(C(=O)NCC(=O)NCC(=O)NCC(=O)N[C@@H](Cc2ccc(Cl)cc2)C(=O)O)cc1 ({Benzoyl(4-SO2NH2)}-GGG[Phe(4-Cl)]-OH) | 850000 M⁻¹ s⁻¹ |
| NS(=O)(=O)c1ccc(C(=O)NCC(=O)NCC(=O)NCC(=O)NCC(=O)O)cc1 ({Benzoyl(4-SO2NH2)}-GGGG-OH) | 250000 M⁻¹ s⁻¹ |
| CCCC[C@H](NC(=O)CNC(=O)CNC(=O)CNC(=O)c1ccc(S(N)(=O)=O)cc1)C(=O)O ({Benzoyl(4-SO2NH2)}-GGG[Nle]-OH) | 420000 M⁻¹ s⁻¹ |

biological target: T1, Carbonic anhydrase 2; assay: Dissociation constant against human carbonic anhydrase II at 37 degree Centigrade

| Compound | Kd |
| --- | --- |
| NS(=O)(=O)c1ccc(C(=O)NC(Cc2ccc([N+](=O)[O-])cc2)C(=O)O)cc1 (stereo not drawn) | 22 nM |
| NS(=O)(=O)c1ccc(C(=O)NCC(=O)NC(CCC(=O)O)C(=O)O)cc1 (stereo not drawn) | 500 nM |
| NS(=O)(=O)c1ccc(C(=O)NCC(=O)NC(Cc2ccc([N+](=O)[O-])cc2)C(=O)O)cc1 (stereo not drawn) | 150 nM |
| COc1ccc(C[C@H](NC(=O)CNC(=O)CNC(=O)CNC(=O)c2ccc(S(N)(=O)=O)cc2)C(=O)O)cc1 | 170 nM |
| NS(=O)(=O)c1ccc(C(=O)NCC(=O)NCC(=O)N2CCC[C@H]2C(=O)O)cc1 | 340 nM |
| CC(C)C(NC(=O)CNC(=O)c1ccc(S(N)(=O)=O)cc1)C(=O)O (stereo not drawn) | 140 nM |
| COc1ccc(CC(NC(=O)CNC(=O)c2ccc(S(N)(=O)=O)cc2)C(=O)O)cc1 (stereo not drawn) | 170 nM |
| CC(C)(C)[C@H](NC(=O)CNC(=O)CNC(=O)c1ccc(S(N)(=O)=O)cc1)C(=O)O | 240 nM |
| NS(=O)(=O)c1ccc(C(=O)NCC(=O)NCC(=O)NCC(=O)N[C@@H](Cc2ccc(Cl)cc2)C(=O)O)cc1 ({Benzoyl(4-SO2NH2)}-GGG[Phe(4-Cl)]-OH) | 96 nM and 99 nM |
| C[C@@H](O)[C@H](NC(=O)CNC(=O)CNC(=O)CNC(=O)c1ccc(S(N)(=O)=O)cc1)C(=O)O | 330 nM |
| NS(=O)(=O)c1ccc(C(=O)NCC(=O)NCC(=O)NCC(=O)N[C@@H](Cc2ccc([N+](=O)[O-])cc2)C(=O)O)cc1 | 160 nM |
| NS(=O)(=O)c1ccc(C(=O)NC(CC(=O)O)C(=O)O)cc1 (stereo not drawn) | 1100 nM |
| NS(=O)(=O)c1ccc(C(=O)NC(Cc2ccc(Cl)cc2)C(=O)O)cc1 (stereo not drawn) | 15 nM and 14 nM |
| NS(=O)(=O)c1ccc(C(=O)NCC(=O)NCC(=O)NCC(=O)N[C@@H](CCC(=O)O)C(=O)O)cc1 | 371 nM |
| CSCCC(NC(=O)c1ccc(S(N)(=O)=O)cc1)C(=O)O (stereo not drawn) | 10 nM |
| N=C(N)NCCCC(NC(=O)c1ccc(S(N)(=O)=O)cc1)C(=O)O (stereo not drawn) | 220 nM |
| N=C(N)NCCC[C@H](NC(=O)CNC(=O)CNC(=O)c1ccc(S(N)(=O)=O)cc1)C(=O)O | 300 nM |
| CCCCC(NC(=O)CNC(=O)c1ccc(S(N)(=O)=O)cc1)C(=O)O (stereo not drawn) | 140 nM |
| CC(C)(C)[C@H](NC(=O)CNC(=O)CNC(=O)CNC(=O)c1ccc(S(N)(=O)=O)cc1)C(=O)O | 210 nM |
| NS(=O)(=O)c1ccc(C(=O)NCC(=O)N2CCCC2C(=O)O)cc1 (stereo not drawn) | 250 nM |
| NS(=O)(=O)c1ccc(C(=O)NCC(=O)NC(CO)C(=O)O)cc1 (stereo not drawn) | 280 nM |
| CCCCC(NC(=O)c1ccc(S(N)(=O)=O)cc1)C(=O)O (stereo not drawn) | 5 nM |
| NS(=O)(=O)c1ccc(C(=O)NCC(=O)NC(Cc2ccc3ccccc3c2)C(=O)O)cc1 (stereo not drawn) | 130 nM |

| Compound | Kd |
| --- | --- |
| NS(=O)(=O)c1ccc(C(=O)NCC(=O)NCC(=O)NCC(=O)NCC(=O)O)cc1 ({Benzoyl(4-SO2NH2)}-GGGG-OH) | 390 nM and 360 nM |
| COc1ccc(C[C@H](NC(=O)CNC(=O)CNC(=O)c2ccc(S(N)(=O)=O)cc2)C(=O)O)cc1 | 170 nM |
| NS(=O)(=O)c1ccc(C(=O)NCC(=O)NC(CC(=O)O)C(=O)O)cc1 (stereo not drawn) | 420 nM |
| NS(=O)(=O)c1ccc(C(=O)NC(CCC(=O)O)C(=O)O)cc1 (stereo not drawn) | 530 nM |
| CC(C)C[C@H](NC(=O)CNC(=O)CNC(=O)c1ccc(S(N)(=O)=O)cc1)C(=O)O | 210 nM |
| NC(=O)CC[C@H](NC(=O)CNC(=O)CNC(=O)CNC(=O)c1ccc(S(N)(=O)=O)cc1)C(=O)O | 280 nM |
| NS(=O)(=O)c1ccc(C(=O)NCC(=O)NCC(=O)NCC(=O)O)cc1 | 230 nM |
| C[C@H](NC(=O)CNC(=O)CNC(=O)CNC(=O)c1ccc(S(N)(=O)=O)cc1)C(=O)O | 300 nM |
| N=C(N)NCCCC(NC(=O)CNC(=O)c1ccc(S(N)(=O)=O)cc1)C(=O)O (stereo not drawn) | 190 nM |
| NS(=O)(=O)c1ccc(C(=O)NCC(=O)NCC(=O)NCC(=O)N[C@@H](Cc2ccc(F)cc2)C(=O)O)cc1 | 140 nM |
| Nc1ccc(C[C@H](NC(=O)CNC(=O)CNC(=O)c2ccc(S(N)(=O)=O)cc2)C(=O)O)cc1 | 210 nM |
| CC(O)C(NC(=O)c1ccc(S(N)(=O)=O)cc1)C(=O)O (stereo not drawn) | 53 nM |
| C[C@H](NC(=O)CNC(=O)c1ccc(S(N)(=O)=O)cc1)C(=O)O | 170 nM |
| Nc1ccc(C[C@H](NC(=O)CNC(=O)CNC(=O)CNC(=O)c2ccc(S(N)(=O)=O)cc2)C(=O)O)cc1 | 190 nM |
| CC(O)C(NC(=O)CNC(=O)c1ccc(S(N)(=O)=O)cc1)C(=O)O (stereo not drawn) | 320 nM |
| NS(=O)(=O)c1ccc(C(=O)NCC(=O)NCC(=O)NCC(=O)N2CCC[C@H]2C(=O)O)cc1 | 330 nM |
| NC(=O)CC[C@H](NC(=O)CNC(=O)CNC(=O)c1ccc(S(N)(=O)=O)cc1)C(=O)O | 270 nM |
| NC(=O)CC(NC(=O)c1ccc(S(N)(=O)=O)cc1)C(=O)O (stereo not drawn) | 380 nM |
| CSCC[C@@H](NC(=O)CNC(=O)CNC(=O)CNC(=O)c1ccc(S(N)(=O)=O)cc1)C(=O)O | 220 nM |
| CCCC[C@H](NC(=O)CNC(=O)CNC(=O)CNC(=O)c1ccc(S(N)(=O)=O)cc1)C(=O)O ({Benzoyl(4-SO2NH2)}-GGG[Nle]-OH) | 190 nM and 220 nM |
| NC(=O)CC(NC(=O)CNC(=O)c1ccc(S(N)(=O)=O)cc1)C(=O)O (stereo not drawn) | 290 nM |
| NS(=O)(=O)c1ccc(C(=O)NCC(=O)NC(Cc2ccc(Cl)cc2)C(=O)O)cc1 (stereo not drawn) | 100 nM |
